Test [1] relates to D2 -receptors. Description: D2-agonist activity (test not specified). The settings on record: presynaptic dopaminergic receptors on sympathetic nerve terminals. The text has this: Otherwise speaking, the main locus of action is at the presynaptic dopaminergic receptors or sympathetic nerve terminals which may also be called "D2 -receptors." Activation of the D2 -receptors on the sympathetic nerve terminals inhibits the release of norepinephrine, thereby inhibiting the increases in cardiac rate and the peripheral vasoconstriction resulting from stimulation of the sympathetic nervous system. These are beneficial cardiovascular actions in those conditions involving excessive or inappropriate levels of sympathetic nervous system stimulation.

Test [2] concerns the target T1, D2 -receptors (Oryctolagus cuniculus, UniProt G1T1Q0).
T1 construct: perfused rabbit ear artery test; from tissue; host or cells: perfused rabbit ear artery (sympathetic nerve terminals)
Description: perfused rabbit ear artery test for D2-agonist activity. The text has this:
In the perfused rabbit ear artery test for D2 -agonist activity [J. P. Hieble et al., Arch.

Molecules are shown by their SMILES. Read-outs that look alike come from different tables or passages of the source.

T1 sequence (G1T1Q0 1-443): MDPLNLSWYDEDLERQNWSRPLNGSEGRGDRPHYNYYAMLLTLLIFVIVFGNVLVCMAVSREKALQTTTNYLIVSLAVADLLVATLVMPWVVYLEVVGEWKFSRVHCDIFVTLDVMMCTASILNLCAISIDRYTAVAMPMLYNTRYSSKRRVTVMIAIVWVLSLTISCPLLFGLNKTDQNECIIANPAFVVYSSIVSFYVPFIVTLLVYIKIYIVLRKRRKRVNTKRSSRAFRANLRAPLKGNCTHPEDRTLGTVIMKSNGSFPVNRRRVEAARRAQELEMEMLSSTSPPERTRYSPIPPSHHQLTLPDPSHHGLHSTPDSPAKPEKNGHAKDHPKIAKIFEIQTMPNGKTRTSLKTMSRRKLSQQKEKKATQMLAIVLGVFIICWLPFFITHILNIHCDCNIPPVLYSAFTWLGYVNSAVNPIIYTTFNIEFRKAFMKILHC

Turning to `CCCN(CCC)CCc1ccc(O)c2[nH]c(=O)[nH]c12` [7-[2-(N,N-di-n-propylamino)ethyl]-4-hydroxy-1,3-benzimidazol-2-one], the “D2 -agonist activity (in words)” value in the test on D2 -receptors [1] is reported as “peripheral D2 -agonists”. In addition, the EC50 at D2 -receptors [2] (perfused rabbit ear artery, D2 -agonist activity, read-out: EC50) was around 0.009 µM.

At D2 -receptors [2], `CCCN(CCC)CCc1ccc(O)c(O)c1` [N,N-di-n-propyldopamine, reference compound] returned a half-maximal effective concentration (EC50) of 0.05 to 0.06 µM.

As usually defined, the EC50 is the concentration needed to bring the measured effect to its halfway point.
